Where two headings read alike, the source gives them in different places.
Tests used:
[1] = biological target: T1, mGluR6 (Rattus norvegicus, UniProt P35349); experiment: intracellular cAMP after forskolin stimulation in mGluR6-expressing CHO cells; format: cell-based; conditions: up to 100 μM; cAMP formation
T1 construct: expressed in transfected cells; host or cells: CHO
Procedure: (§1) The NIH3T3 cell lines expressing individually mGluR1 α and mGluR5a were cultured using DMEM containing 10% dialyzed fetal calf serum and 100 units/ml, 0.1 mg/ml of streptomycin sulfate. The CHO cell lines expressing individually mGluR2, R4, R6 and R7 were cultured using DMEM containing 10% dialyzed fetal calf serum, 100 units/ml, 0.1 mg/ml of streptomycin sulfate and 2 mM glutamine. Using cell lines expressing individually mGluR2, R6 and R7, cAMP formation after forskolin stimulation in the presence of IBMX was measured using a cAMP assay kit as described previously (Neuron, 8, 169-179, 1992).

[2] = biological target: T2, mGluR2 (Rattus norvegicus, UniProt P31421); experiment: intracellular cAMP after forskolin stimulation in mGluR2-expressing CHO cells; format: cell-based; conditions: up to 100 μM; cAMP formation
T2 construct: expressed in transfected cells; host or cells: CHO
T2 sequence (P31421 19-872): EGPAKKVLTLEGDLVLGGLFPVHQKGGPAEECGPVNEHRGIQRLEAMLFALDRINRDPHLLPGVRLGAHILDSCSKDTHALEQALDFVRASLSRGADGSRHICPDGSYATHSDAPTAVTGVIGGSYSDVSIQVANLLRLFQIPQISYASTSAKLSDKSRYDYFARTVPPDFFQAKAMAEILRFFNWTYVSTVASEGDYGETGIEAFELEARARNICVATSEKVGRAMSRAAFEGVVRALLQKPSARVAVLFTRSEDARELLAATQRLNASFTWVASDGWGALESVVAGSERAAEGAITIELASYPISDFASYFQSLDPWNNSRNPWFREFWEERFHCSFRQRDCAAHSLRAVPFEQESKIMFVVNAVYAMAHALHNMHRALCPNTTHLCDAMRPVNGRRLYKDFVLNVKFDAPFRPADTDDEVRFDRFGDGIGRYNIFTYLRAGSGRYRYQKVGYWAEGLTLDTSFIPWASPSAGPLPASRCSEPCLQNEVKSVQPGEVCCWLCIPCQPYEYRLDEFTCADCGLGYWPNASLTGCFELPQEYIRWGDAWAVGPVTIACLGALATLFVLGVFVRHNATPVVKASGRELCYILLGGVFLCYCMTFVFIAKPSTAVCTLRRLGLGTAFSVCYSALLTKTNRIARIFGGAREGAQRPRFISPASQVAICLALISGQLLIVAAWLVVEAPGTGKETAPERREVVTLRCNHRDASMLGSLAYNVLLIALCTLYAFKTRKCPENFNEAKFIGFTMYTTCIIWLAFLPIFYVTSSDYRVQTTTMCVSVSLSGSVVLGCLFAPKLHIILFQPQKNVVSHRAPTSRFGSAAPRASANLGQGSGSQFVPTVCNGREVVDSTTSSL
Procedure: as §1

[3] = biological target: T3, mGluR7 (Rattus norvegicus, UniProt P35400); experiment: intracellular cAMP after forskolin stimulation in mGluR7-expressing CHO cells; format: cell-based; conditions: up to 100 μM; cAMP formation
T3 construct: expressed in transfected cells; host or cells: CHO
T3 sequence (P35400 35-915): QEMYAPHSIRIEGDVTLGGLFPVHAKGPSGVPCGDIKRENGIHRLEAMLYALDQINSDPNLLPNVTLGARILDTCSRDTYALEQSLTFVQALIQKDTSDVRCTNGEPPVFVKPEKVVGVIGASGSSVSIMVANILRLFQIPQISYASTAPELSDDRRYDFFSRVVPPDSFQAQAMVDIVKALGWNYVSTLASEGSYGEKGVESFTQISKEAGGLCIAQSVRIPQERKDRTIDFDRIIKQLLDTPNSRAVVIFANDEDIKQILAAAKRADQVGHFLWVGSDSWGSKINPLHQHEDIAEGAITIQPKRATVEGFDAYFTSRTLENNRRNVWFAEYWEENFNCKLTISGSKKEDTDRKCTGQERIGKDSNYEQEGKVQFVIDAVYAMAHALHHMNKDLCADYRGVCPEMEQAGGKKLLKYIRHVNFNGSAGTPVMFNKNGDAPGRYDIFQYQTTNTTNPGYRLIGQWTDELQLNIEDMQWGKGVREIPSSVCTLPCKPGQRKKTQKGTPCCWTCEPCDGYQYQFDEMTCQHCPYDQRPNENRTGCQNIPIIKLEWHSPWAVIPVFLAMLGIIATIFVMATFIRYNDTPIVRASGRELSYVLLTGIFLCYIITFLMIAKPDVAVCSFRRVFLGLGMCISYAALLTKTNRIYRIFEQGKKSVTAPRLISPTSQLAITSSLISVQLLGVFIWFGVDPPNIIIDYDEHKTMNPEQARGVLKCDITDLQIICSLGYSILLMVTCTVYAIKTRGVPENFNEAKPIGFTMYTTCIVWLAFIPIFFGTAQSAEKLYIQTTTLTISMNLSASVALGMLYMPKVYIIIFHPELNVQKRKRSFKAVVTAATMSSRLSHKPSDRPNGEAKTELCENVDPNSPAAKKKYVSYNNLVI
Procedure: as §1

[4] = tested on: spinal L5/L6 nerve-ligated rats; experiment: von Frey hair (VFH) test in spinal L5/L6 nerve-ligated rats; format: in vivo, SD rats; conditions: 30 or 100 mg/kg po; 45 minutes after administration; 7 days after operation
Procedure: The test was carried out by modifying a previously reported method (Pain, 50, 355-363, 1992). SD rats were used. The left side lumbar nerves (L5 and L6) of each animal were ligated with silk threads under pentobarbital anesthesia. The following test was carried out 7 days after the operation.
After 45 minutes of oral administration of drug, von Frey hair (VFH) test was carried out to measure a mechanical pain threshold. The measurement was carried out on both hindpaws.
Although there was little difference in the mechanical pain thresholds between the left and right hindpaw in sham-operated rats in which the threshold was 17 to 20 g (log(g): 1.23-1.30), the obvious reduction of the mechanical pain threshold in the operated side hinpaw was found in spinal L5/L6 nerve-ligated rats.
Statistical analysis was performed with Dunnet test and carried out on each side hindpaw between the control group and drug-administered groups (** and *** in the table are as follows; **p<0.01, ***p<0.001 vs. control group).

[5] = biological target: T4, mGluR5a (Rattus norvegicus, UniProt P31424); experiment: intracellular calcium concentration in mGluR5a-expressed NIH3T3 cells; format: cell-based; conditions: up to 10 μM
T4 construct: expressed in transfected cells; host or cells: NIH3T3
T4 sequence (P31424 21-1171 isoform P31424-2 limits assumed): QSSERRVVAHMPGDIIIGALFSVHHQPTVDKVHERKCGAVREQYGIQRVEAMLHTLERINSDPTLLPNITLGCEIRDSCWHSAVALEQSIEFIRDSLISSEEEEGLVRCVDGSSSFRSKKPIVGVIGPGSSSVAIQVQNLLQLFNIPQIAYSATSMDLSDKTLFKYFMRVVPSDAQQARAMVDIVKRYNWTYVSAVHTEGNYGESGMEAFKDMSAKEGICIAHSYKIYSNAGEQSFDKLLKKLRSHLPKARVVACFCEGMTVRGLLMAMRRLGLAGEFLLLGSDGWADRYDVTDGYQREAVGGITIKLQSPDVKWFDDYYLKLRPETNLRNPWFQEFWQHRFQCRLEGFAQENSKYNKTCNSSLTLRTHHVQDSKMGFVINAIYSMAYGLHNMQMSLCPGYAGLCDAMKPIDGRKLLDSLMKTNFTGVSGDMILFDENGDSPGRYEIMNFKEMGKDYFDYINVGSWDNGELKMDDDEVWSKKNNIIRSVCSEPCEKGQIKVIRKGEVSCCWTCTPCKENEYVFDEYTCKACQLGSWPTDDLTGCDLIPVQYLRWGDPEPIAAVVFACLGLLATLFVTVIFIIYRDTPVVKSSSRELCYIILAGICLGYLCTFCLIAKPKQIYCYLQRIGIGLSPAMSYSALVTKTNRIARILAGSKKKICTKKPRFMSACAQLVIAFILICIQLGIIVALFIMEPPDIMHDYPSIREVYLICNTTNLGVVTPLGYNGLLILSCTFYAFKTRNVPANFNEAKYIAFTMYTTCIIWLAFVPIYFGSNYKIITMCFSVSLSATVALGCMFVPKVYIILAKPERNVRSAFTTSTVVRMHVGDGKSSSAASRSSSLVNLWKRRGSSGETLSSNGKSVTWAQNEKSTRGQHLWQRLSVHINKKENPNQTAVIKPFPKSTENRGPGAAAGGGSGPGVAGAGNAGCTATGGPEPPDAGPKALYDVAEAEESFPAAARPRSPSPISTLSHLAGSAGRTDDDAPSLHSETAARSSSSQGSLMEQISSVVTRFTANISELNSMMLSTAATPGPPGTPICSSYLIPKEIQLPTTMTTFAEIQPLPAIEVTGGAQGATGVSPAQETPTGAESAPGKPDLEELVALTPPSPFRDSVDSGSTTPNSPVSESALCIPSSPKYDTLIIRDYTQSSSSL
Procedure: The NIH3T3 cell lines expressing individually mGluR1 α and mGluR5a were cultured using DMEM containing 10% dialyzed fetal calf serum and 100 units/ml, 0.1 mg/ml of streptomycin sulfate. The CHO cell lines expressing individually mGluR2, R4, R6 and R7 were cultured using DMEM containing 10% dialyzed fetal calf serum, 100 units/ml, 0.1 mg/ml of streptomycin sulfate and 2 mM glutamine. Intracellular calcium concentration of the mGluR5a-expressed cells was measured using a spectrofluorometer as described previously (Nature, 383, 89-92, 1996).

[6] = tested on: STZ-induced diabetes mice; experiment: tail pinch test in STZ-induced diabetes mice model; format: in vivo, ICR mice; conditions: 45 minutes after administration, STZ mice day 15
Procedure: The test was carried out by modifying a previously reported method (Pharmacol. Biochem. Behav., 39, 541-544, 1991). STZ at a dose of 200 mg/kg was intraperitoneally administered to 4-weeks-old ICR mice. A pre-drug tail pinch test was carried out in the afternoon at the fourteenth day after the STZ-administration, and animals showing a reaction latency of 3 seconds or less were subjected to the next day's test. At the fifteenth day after the STZ-administration, each drug was administered orally and a post-drug tail pinch test was carried out 45 minutes after the drug administration. […] Statistical analysis was performed with Steel test between the control group and drug-administered group (* and ** in the table are as follows; *p<0.05, **p<0.01 vs. control group).

[7] = biological target: T5, mGluR1 (Rattus norvegicus, UniProt P23385); experiment: PI hydrolysis assay in cerebellar granule cells (mGluR1 antagonistic activity); format: cell-based
T5 construct: endogenous in cells; host or cells: primary cerebellar granule cells from Wistar rats aged 7 to 8 days
T5 sequence (P23385 19-1199): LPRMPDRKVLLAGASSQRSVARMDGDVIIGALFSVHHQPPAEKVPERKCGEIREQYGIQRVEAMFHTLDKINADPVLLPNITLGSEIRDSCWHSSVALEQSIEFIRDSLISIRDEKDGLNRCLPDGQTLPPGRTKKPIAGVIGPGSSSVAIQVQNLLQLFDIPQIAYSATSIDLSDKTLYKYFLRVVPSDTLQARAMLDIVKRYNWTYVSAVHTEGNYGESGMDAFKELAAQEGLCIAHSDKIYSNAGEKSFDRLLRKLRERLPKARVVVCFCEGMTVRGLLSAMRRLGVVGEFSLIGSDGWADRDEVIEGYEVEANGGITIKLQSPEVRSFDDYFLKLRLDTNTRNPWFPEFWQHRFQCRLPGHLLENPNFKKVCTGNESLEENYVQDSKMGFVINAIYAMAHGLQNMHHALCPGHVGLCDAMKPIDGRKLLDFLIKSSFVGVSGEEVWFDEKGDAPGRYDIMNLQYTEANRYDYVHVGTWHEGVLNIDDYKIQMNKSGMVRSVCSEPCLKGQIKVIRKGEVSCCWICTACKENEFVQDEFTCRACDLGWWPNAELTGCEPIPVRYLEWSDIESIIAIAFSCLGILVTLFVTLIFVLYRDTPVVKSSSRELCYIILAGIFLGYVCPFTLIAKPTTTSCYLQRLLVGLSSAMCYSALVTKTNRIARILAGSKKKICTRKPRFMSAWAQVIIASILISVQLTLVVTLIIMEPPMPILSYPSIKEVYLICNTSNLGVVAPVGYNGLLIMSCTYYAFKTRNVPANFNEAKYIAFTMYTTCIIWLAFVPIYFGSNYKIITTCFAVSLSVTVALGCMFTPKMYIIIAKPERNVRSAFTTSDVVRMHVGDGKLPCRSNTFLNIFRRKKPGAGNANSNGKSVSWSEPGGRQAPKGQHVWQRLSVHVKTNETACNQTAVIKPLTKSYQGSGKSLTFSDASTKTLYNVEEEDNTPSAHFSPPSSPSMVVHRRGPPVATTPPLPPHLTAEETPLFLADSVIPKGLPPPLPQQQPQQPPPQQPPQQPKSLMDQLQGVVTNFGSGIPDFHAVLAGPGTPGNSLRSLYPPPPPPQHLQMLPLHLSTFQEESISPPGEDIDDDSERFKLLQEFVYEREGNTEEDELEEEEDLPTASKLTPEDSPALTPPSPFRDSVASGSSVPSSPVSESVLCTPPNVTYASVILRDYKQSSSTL
Procedure: 1. Measurement of mGluR1 Antagonistic Activity Using Cerebellar Granule Cells The whole brain was removed from each of seven Wistar rats of 7 to 8 days of age after birth (Japan S L C), and then the cerebellum was isolated in an L-15 medium (Gibco) under a stereoscopic microscope. The isolated cerebellum was cut into pieces using a surgical knife and incubated at 37° C. for 15 minutes in 0.25% trypsin solution (Gibco) containing 750 U/ml of DNase I (Sigma). After termination of the enzyme reaction by adding fetal calf serum (JRH Biosciences), the tissue pieces were centrifuged and the supernatant was removed by sucking. After adding 10 ml of a high potassium medium, cells were dissociated by 5 to 6 times passage through a plastic pipette. After filtering the cell dispersion through a nylon mesh (40 μm pore), viable cells were counted. The cells were diluted in the high potassium medium and then seeded at a density of 8×10^5 cells/well onto 24-well culture plates (Sumitomo Bakelite) precoated with poly-L-lysine. […] High potassium medium: BME (Gibco)+10% immobilized fetal calf serum+25 mM KCl+1% penicillin/streptomycin (Gibco) The PI hydrolysis was measured as described by Aramori et al(Neuron, 8, 757-765, 1992). […] The eluate was mixed with a liquid scintillator (Aquasol-2) and the radioactivity in the eluate was determined by a liquid scintillation spectrometer.

[8] = tested on: nerve ligation-induced neuropathic pain animal models; conditions: cited from earlier work; for cold hyperalgesia / development of mechanical allodynia: intrathecal twice-daily on post-operative days 0-8
[9] = biological target: T6, mGluR1 α (Rattus norvegicus, UniProt P23385); experiment: PI hydrolysis assay in mGluR1 α-expressed NIH3T3 cells; format: cell-based; conditions: 100 μM glutamate, read-out: IC50 value, inhibition of PI formation induced by 100 μM glutamate
T6 construct: expressed in transfected cells; host or cells: NIH3T3
T6 sequence (P23385 19-1199): as above
Procedure: Measurement of inhibition activity by mGluR1 α expression cell The NIH3T3 cell lines expressing individually mGluR1 α and mGluR5a were cultured using DMEM containing 10% dialyzed fetal calf serum and 100 units/ml, 0.1 mg/ml of streptomycin sulfate. The CHO cell lines expressing individually mGluR2, R4, R6 and R7 were cultured using DMEM containing 10% dialyzed fetal calf serum, 100 units/ml, 0.1 mg/ml of streptomycin sulfate and 2 mM glutamine. Using the mGluR1 α-expressed cells labeled with ^3H-inositol, hydrolysis of phosphatidylinositol was measured as described previously(Nature, 383, 89-92, 1996).

T1 sequence (P35349 24-871): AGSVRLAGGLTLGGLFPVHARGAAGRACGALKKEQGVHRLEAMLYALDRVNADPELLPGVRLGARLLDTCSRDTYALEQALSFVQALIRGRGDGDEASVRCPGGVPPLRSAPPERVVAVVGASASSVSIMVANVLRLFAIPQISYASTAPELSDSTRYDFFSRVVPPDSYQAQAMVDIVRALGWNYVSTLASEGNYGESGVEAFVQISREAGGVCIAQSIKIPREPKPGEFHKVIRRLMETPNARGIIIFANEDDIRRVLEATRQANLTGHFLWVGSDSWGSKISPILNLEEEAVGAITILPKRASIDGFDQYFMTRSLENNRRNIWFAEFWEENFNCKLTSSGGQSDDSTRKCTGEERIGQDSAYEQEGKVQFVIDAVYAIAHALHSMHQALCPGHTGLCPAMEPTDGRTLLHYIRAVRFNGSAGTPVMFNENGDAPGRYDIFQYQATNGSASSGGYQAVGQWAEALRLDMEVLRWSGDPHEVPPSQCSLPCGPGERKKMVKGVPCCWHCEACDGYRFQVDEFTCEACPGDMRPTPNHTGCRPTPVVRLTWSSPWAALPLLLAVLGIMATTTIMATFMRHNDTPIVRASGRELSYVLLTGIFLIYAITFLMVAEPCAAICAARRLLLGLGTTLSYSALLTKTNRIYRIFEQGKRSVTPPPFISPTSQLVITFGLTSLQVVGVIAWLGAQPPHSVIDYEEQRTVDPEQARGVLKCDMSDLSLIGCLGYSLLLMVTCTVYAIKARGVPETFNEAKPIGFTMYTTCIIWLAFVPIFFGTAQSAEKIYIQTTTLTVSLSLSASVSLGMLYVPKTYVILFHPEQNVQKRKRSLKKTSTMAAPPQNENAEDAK

Cc1c(C(=O)N(C)C2CCCCC2)sc2nc3ccc(N)cc3n12.Cl.Cl [compound A, 6-amino-N-cyclohexyl-N, 3-dimethylthiazolo[3,2-a]benzoimidazole-2-carboxamide dihydrochloride]
agonist or antagonist activity for mGluR6 [1]: did not show any agonist or antagonist activity | agonist or antagonist activity for mGluR2 [2]: did not show any agonist or antagonist activity | agonist or antagonist activity for mGluR7 [3]: did not show any agonist or antagonist activity | mechanical pain threshold in the operated side hindpaw (VFH test) [4]: improved lowered mechanical pain thresholds | agonist or antagonist activity for mGluR5 [5]: did not show any agonist or antagonist activity | reaction latency in tail pinch test ([6]; 30 mg/kg po): significantly prolonged the reaction latency | IC50 [7]: 22 nM

N[C@H](C(=O)O)c1ccc(C(=O)O)cc1 [(S)-4CPG, (S)-4-carboxyphenylglycine]
cold hyperalgesia ([8]; assessed on days 4 and 8): attenuated cold hyperalgesia | development of mechanical allodynia ([8]; assessed on days 4 and 8): inhibited a development of mechanical allodynia | cold hyperalgesia ([8]; assessed on days 12 and 16): did not have an effect | development of mechanical allodynia ([8]; assessed on days 12 and 16): did not have an effect | development of lowered pain threshold ([8]; intrathecal twice-daily on post-operative days 8-11, any day of the test): did not inhibit development of lowered pain threshold

C[C@H]1CCCC[C@H]1N(C)C(=O)c1cn2c(nc3ccc(N)cc32)s1.Cl.Cl [compound B, (+)-(1R,2S)-6-amino-N-methyl-N-(2-methylcyclohexyl)thiazolo [3,2-a]benzoimidazole-2-carboxamide dihydrochloride]
IC50 [9]: 1.7 nM | reaction latency in tail pinch test ([6]; 10 mg/kg po): significantly prolonged the latency | IC50 [7]: 2 nM
